From ChEMBL document CHEMBL5260850, “The exploration of aza-quinolines as hematopoietic prostaglandin D synthase (H-PGDS) inhibitors with low brain exposure” (Bioorg Med Chem, 2020)
The source made the active and inactive calls. The calls are words filed in the database; no cut-off is given here.

What was measured:
[1] = Toxicity in dog assessed as decrease in body temperature at 75 mg/kg/day, po QD for 4 days; type: organism-based, Canis lupus familiaris; details: in vivo, 96 h, time 4 day
[2] = target: Voltage-gated inwardly rectifying potassium channel KCNH2 (Homo sapiens, UniProt Q12809); assay: Inhibition of hERG
[3] = Toxicity in Wistar Han rat assessed as morphological changes in heart at 30 mg/kg/day, po administered QD for 7 days by microscopic analysis; type: organism-based; details: in vivo, 168 h, time 7 day
Bile salt export pump = Bile salt export pump (Homo sapiens, UniProt O95342); assay: Inhibition of BSEP (unknown origin) upto 10000 nM; details: 10 µM
[4] = Toxicity in dog assessed as diffuse degenration/regeneration and multifocal erosion/ulcreation in small intestine and oesophagus at 75 mg/kg/day, po QD for 4 days by microscopic analysis; type: organism-based, Canis lupus familiaris; details: in vivo, 96 h, time 4 day
[5] = Toxicity in dog assessed as deterioration in clinical condition at 75 mg/kg/day, po QD for 4 days; type: organism-based, Canis lupus familiaris; details: in vivo, 96 h, time 4 day
[6] = Inhibition of m-PGES (unknown origin); parameters: species or system Homo sapiens
[7] = Cmax in dog at 30 mg/kg/day, po QD for 4 days; type: ADME, organism-based, Canis lupus familiaris; parameters: time 4 day, dose 30 mg/kg/day, route po; details: in vivo
[8] = Ratio of drug level in muscle to plasma in C57BL/6N mouse administered orally for 10 mins prior to unilateral eccentric contraction and QD for 43 days thereafter; type: toxicity, cell-free, Muscle tissue/plasma; details: route po, time 43 day
[9] = AUC (0 to last) in eccentric contraction-induced muscle injury C57BL/6N mouse model administered orally for 10 mins prior to unilateral eccentric contraction and QD for 16 days thereafter; type: ADME; parameters: time 16 day, route po; details: in vivo, po
Mus musculus = assay: Anti-inflammatory activity against C57BL6/N mouse assessed as EC50 required for reduction in LPS-induced PGD2 level in plasma administered orally with compound and 1 hr later treated with LPS and measured after 30 mins by LC-MS/MS analysis; type: functional, organism-based; details: C57BL/6N
[10] = Cmax in Wistar Han rat at 30 mg/kg/day, po QD for 7 days; type: ADME, organism-based; parameters: time 7 day, dose 30 mg/kg/day, route po; details: in vivo
[11] = AUC in dog at 75 mg/kg/day, po QD for 4 days; type: ADME, organism-based, Canis lupus familiaris; parameters: time 4 day, dose 75 mg/kg/day, route po; details: in vivo
[12] = target: Substance-P receptor (Homo sapiens) (UniProt P25103); details: dose <= 10000.0 nM
Description: Inhibition of tachykinin NK1 receptor (unknown origin) upto 10000 nM

[13] = target: 5-hydroxytryptamine receptor 2B (Homo sapiens) (UniProt P41595); details: dose <= 10000.0 nM
Description: Inhibition of 5-HT2B receptor (unknown origin) upto 10000 nM

[14] = Terminal half life in rat at 0.4 mg/kg, iv; type: ADME, organism-based; details: in vivo, read-out: beta t1/2 (converted)
[15] = CNS toxicity in Wistar Han rat at 10 to 100 mg/kg/day, po QD for 7 days; type: organism-based; details: in vivo, 168 h, dose 10-100 mg/kg/day, time 7 day
[16] = target: Sodium channel protein type 5 subunit alpha (Homo sapiens, UniProt Q14524); assay: Inhibition of Nav1.5 channel (unknown origin) upto 10000 nM; details: 10 µM
[17] = target: Alpha-1B adrenergic receptor (Homo sapiens) (UniProt P35368); details: dose <= 10000.0 nM
Description: Inhibition of alpha1B adrenergic receptor (unknown origin) upto 10000 nM

[18] = AUC (0 to last) in mdx mouse administered orally 10 mins prior to unilateral eccentric contraction and QD for 43 days thereafter; type: ADME; parameters: time 43 day, route po; details: in vivo, po
[19] = target: Aryl hydrocarbon receptor (Homo sapiens, UniProt P35869); assay: Inhibition of AhR (unknown origin) upto 10000 nM; details: 10 µM
[20] = Toxicity in dog assessed as clinical pathological changes by measuring increase in cardiac troponin 1 level at 75 mg/kg/day, po QD for 4 days; type: organism-based, Canis lupus familiaris; details: in vivo, 96 h, time 4 day
[21] = Toxicity in LPS-treated C57BL6/N mouse assessed as seizures administered orally with compound and 1 hr later treated with LPS and measured after 30 mins; details: in vivo, po, 1.5 h
[22] = Toxicity in C57BL/6N mouse assessed as seizures administered orally for 10 mins prior to unilateral eccentric contraction and QD for 43 days thereafter; details: in vivo, po, 1032 h, time 43 day
[23] = target: Acetylcholinesterase (Homo sapiens) (UniProt P22303); details: dose <= 10000.0 nM
Description: Inhibition of AChE (unknown origin) upto 10000 nM

[24] = Genotoxicity in Salmonella typhimurium in absence of metabolic activation by Ames test; type: toxicity; details: salmonella enterica subsp. enterica serovar typhimurium
[25] = Half life in mouse liver microsomes pretreated for 5 mins followed by incubation with NADP for 30 secs and measured upto 45 mins by LC-MS/MS analysis; type: ADME, Microsome; details: time 3030 sec
[26] = target: Muscarinic acetylcholine receptor M1 (Homo sapiens) (UniProt P11229); details: dose <= 10000.0 nM
Description: Inhibition of muscarinic M1 receptor (unknown origin) upto 10000 nM

[27] = target: Muscarinic acetylcholine receptor M2 (Homo sapiens) (UniProt P08172); details: dose <= 10000.0 nM
Description: Inhibition of muscarinic M2 receptor (unknown origin) upto 10000 nM

[28] = Oral bioavailability in rat at 2.4 mg/kg; type: ADME, organism-based; details: in vivo
[29] = Free AUC (0 to last) in eccentric contraction-induced muscle injury C57BL/6N mouse model administered orally for 10 mins prior to unilateral eccentric contraction and QD for 16 days thereafter; type: ADME; details: in vivo, po, 384 h, time 16 day
[30] = Oral bioavailability in dog at 1 mg/kg; type: ADME, organism-based, Canis lupus familiaris; details: in vivo
[31] = target: Hematopoietic prostaglandin D synthase (Homo sapiens, UniProt O60760); assay: Inhibition of human H-PGDS expressed in Escherichia coli BL21 DE3 cells assessed as reduction in PGD2 production using PGH2 as substrate by RapidFire High Throughput Mass spectrometry
[32] = target: Vasopressin V1a receptor (Homo sapiens) (UniProt P37288); details: dose <= 10000.0 nM
Description: Inhibition of V1A receptor (unknown origin) upto 10000 nM

[33] = Toxicity in dog assessed as cytoplasmic alteration in zona fasciculata in adrenal gland at 75 mg/kg/day, po QD for 4 days by microscopic analysis; type: organism-based, Canis lupus familiaris; details: in vivo, 96 h, time 4 day
[34] = target: Prostaglandin G/H synthase 2 (Homo sapiens) (UniProt P35354); details: dose <= 10000.0 nM
Description: Inhibition of COX-2 (unknown origin) upto 10000 nM

[35] = Toxicity in Wistar Han rat assessed as necrosis and inflammatory cell infiltrates in heart at 100 mg/kg/day, po administered QD for 7 days by microscopic analysis; type: organism-based; details: in vivo, 168 h, time 7 day
Cytochrome P450 3A4 = Cytochrome P450 3A4 (Homo sapiens, UniProt P08684); assay: Inhibition of CYP3A4 (unknown origin); type: ADME
[36] = Cmax in eccentric contraction-induced muscle injury C57BL/6N mouse model administered orally for 10 mins prior to unilateral eccentric contraction and QD for 16 days thereafter; type: ADME; parameters: time 16 day, route po; details: in vivo, po
[37] = Toxicity in Wistar Han rat assessed as tolerance at 30 mg/kg/day, po administered QD for 7 days; type: organism-based; details: in vivo, 168 h, time 7 day
[38] = target: 5-hydroxytryptamine receptor 1B (Homo sapiens) (UniProt P28222); details: dose <= 10000.0 nM
Description: Inhibition of 5-HT1B receptor (unknown origin) upto 10000 nM

[39] = target: Voltage-dependent L-type calcium channel subunit alpha-1C (Homo sapiens, UniProt Q13936); assay: Inhibition of Cav1.2 channel (unknown origin) upto 10000 nM; details: 10 µM
[40] = target: Beta-2 adrenergic receptor (Homo sapiens) (UniProt P07550); details: dose <= 10000.0 nM
Description: Inhibition of beta2 adrenergic receptor (unknown origin) upto 10000 nM

[41] = Toxicity in Wistar Han rat assessed as increased lymphocytolysis in thymus at 100 mg/kg/day, po administered QD for 7 days by microscopic analysis; type: organism-based; details: in vivo, 168 h, time 7 day

Chain of Alpha-1B adrenergic receptor (Homo sapiens) (P35368 whole entry): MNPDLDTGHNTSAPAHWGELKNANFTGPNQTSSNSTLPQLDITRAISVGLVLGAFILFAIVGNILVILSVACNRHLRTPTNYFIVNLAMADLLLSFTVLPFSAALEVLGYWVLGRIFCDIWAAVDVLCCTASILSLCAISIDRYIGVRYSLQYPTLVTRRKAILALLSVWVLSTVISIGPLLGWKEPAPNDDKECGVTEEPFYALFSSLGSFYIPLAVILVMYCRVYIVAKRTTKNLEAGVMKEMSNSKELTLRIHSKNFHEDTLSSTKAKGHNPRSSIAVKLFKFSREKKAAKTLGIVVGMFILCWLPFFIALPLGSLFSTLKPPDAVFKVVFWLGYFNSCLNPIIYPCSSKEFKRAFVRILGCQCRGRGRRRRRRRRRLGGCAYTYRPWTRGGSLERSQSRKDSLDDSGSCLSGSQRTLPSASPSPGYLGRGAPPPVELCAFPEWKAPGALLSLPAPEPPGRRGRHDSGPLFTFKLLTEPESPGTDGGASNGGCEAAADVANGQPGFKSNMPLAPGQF
Chain of 5-hydroxytryptamine receptor 2B (Homo sapiens) (P41595 whole entry): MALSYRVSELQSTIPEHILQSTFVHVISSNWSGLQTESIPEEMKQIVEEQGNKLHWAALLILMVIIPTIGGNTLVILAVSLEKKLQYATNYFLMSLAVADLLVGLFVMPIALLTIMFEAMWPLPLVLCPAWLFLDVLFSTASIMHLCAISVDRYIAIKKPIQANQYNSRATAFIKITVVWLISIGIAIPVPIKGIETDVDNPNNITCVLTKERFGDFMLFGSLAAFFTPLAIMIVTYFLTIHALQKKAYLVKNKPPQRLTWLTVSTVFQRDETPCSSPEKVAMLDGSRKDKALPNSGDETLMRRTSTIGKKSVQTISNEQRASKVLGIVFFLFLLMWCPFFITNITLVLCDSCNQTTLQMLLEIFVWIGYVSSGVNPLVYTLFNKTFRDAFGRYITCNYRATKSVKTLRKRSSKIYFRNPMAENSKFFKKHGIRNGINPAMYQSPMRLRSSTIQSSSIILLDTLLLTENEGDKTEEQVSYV
Chain of Cytochrome P450 3A4 (P08684 whole entry): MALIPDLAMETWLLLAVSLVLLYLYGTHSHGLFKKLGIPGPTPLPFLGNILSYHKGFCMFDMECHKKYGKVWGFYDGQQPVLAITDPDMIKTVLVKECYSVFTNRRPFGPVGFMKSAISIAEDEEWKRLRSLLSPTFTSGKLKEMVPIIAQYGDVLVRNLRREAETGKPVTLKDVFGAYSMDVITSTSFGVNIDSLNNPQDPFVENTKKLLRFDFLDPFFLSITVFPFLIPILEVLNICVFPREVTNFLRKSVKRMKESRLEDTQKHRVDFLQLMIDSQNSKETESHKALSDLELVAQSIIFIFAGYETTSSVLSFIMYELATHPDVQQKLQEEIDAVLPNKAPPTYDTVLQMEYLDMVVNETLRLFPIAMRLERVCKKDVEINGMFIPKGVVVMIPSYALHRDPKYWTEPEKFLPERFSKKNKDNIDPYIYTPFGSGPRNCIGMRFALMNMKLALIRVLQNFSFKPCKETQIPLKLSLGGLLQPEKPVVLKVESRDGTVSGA
Chain of Bile salt export pump (O95342 whole entry): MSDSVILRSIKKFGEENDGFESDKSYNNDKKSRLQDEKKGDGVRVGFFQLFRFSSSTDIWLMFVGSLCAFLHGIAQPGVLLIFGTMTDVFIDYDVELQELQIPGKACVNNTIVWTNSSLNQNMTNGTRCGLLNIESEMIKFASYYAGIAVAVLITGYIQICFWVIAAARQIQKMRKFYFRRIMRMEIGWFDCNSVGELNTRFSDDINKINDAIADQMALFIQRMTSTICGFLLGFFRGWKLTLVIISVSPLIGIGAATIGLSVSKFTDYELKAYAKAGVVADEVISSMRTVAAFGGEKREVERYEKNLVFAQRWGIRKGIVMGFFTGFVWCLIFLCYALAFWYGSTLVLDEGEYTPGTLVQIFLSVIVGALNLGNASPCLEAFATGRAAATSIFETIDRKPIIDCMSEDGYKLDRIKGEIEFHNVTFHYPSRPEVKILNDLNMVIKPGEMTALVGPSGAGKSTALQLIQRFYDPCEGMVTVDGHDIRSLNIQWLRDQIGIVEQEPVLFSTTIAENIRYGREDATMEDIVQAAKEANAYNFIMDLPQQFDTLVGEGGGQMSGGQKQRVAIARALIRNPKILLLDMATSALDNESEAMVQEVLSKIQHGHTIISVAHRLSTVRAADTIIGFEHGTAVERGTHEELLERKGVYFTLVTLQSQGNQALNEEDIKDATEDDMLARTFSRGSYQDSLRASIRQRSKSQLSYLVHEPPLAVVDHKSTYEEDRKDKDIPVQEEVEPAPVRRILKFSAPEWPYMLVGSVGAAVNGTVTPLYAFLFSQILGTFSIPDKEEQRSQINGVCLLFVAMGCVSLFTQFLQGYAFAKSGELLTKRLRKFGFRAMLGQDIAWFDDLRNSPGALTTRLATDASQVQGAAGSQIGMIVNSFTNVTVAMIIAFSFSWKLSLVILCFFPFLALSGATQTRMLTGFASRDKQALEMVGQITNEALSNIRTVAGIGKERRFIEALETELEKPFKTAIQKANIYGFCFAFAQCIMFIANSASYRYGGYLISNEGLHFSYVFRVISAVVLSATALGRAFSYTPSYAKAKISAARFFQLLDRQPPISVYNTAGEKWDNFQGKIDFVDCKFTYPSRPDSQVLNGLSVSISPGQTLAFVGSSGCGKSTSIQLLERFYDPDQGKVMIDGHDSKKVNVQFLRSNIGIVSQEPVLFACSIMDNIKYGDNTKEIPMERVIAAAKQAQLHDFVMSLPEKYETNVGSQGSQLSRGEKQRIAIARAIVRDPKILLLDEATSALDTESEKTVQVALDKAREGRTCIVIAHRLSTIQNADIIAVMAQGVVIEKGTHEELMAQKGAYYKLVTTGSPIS
Chain of Hematopoietic prostaglandin D synthase (O60760 whole entry): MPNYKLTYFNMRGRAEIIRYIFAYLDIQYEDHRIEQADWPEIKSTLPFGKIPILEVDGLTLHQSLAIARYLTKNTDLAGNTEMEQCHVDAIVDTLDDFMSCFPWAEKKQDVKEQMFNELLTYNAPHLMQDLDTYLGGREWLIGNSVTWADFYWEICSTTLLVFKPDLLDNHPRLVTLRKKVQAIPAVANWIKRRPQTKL
Chain of Beta-2 adrenergic receptor (Homo sapiens) (P07550 whole entry, looked up): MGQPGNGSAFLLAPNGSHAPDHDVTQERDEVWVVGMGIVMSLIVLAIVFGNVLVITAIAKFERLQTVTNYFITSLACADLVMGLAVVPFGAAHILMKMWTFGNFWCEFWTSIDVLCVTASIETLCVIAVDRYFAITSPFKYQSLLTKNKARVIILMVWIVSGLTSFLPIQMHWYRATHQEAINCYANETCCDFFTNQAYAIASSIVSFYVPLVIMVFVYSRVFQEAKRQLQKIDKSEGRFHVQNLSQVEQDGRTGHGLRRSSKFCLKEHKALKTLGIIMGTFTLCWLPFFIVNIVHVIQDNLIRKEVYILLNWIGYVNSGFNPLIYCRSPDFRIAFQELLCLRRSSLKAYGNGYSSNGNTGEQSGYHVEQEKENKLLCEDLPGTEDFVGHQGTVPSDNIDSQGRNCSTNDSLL
Chain of Aryl hydrocarbon receptor (P35869 whole entry): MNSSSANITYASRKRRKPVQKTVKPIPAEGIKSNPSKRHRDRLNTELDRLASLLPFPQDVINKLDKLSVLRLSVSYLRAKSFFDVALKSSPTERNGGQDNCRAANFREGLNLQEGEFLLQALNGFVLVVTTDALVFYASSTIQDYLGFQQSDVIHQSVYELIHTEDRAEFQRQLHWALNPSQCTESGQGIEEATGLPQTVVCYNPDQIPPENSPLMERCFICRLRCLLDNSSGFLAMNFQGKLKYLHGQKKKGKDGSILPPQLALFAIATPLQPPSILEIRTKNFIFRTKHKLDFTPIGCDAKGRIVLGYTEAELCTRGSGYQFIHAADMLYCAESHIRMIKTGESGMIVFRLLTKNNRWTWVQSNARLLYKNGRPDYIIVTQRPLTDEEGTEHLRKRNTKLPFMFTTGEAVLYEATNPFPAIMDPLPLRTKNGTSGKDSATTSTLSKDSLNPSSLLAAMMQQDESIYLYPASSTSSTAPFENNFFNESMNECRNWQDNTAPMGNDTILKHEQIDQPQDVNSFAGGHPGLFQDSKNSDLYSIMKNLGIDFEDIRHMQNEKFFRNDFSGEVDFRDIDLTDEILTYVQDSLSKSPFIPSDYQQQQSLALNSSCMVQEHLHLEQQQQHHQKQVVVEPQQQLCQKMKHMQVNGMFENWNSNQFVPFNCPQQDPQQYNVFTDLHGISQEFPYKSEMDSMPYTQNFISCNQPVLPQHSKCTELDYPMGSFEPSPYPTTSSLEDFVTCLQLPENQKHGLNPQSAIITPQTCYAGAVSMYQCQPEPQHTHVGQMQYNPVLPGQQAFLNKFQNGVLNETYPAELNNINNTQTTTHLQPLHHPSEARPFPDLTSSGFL
Chain of Vasopressin V1a receptor (Homo sapiens) (P37288 whole entry, looked up): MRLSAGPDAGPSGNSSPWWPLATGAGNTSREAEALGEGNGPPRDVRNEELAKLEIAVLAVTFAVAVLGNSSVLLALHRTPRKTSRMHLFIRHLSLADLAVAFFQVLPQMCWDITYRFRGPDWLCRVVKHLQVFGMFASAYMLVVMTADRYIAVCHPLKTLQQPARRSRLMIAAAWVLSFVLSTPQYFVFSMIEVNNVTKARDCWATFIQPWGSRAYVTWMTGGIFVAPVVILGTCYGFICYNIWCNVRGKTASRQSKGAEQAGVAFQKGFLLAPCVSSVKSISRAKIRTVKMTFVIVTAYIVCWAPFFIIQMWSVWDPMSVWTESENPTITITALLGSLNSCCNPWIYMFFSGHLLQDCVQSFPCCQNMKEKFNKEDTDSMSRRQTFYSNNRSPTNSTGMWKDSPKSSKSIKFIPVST

For `CC(C)(O)[C@H]1CC[C@H](NC(=O)c2cnc3nc(C4CC4)ccc3c2)CC1`, the Activity [1] was “Toxic”, the IC50 [2] was greater than 80000 nM and the Activity [3] was “Non-Toxic”. For the same compound, the “inhibition (INH)” value (Bile salt export pump) was “Not Active”, the Activity [4] was “Toxic” and the Activity [5] was “Toxic”. The IC50 [6] was greater than 100000 nM, the Cmax [7] was 34000 ng/mL and the Kp at 1032 h [8] was 0.56. For the same compound, the AUC(0-t) at 384 h [9] was 5.3 µg·h/mL, the EC50 (Mus musculus) was 2.6 nM and the Cmax [10] was 24000 ng/mL. For the same compound, the AUC at 96 h [11] was 3600 µg·h/mL, the inhibition [12] was “inactive” and the inhibition [13] was “inactive”. The half-life [14] was 5.1 h, the Activity [15] was “Non-Toxic” and the “inhibition (INH)” value [16] was “Not Active”. The inhibition [17] was “inactive”, the AUC(0-t) at 1032 h [18] was 1.1 µg·h/mL and the “inhibition (INH)” value [19] was “Not Active”. The Activity [20] was “Toxic”, the Activity [21] was “Non-Toxic” and the Activity [22] was “Non-Toxic”. For the same compound, the inhibition [23] was “inactive”, the Activity [24] was “Non-Toxic” and the half-life [25] was greater than 3 h. For the same compound, the inhibition [26] was “inactive”, the inhibition [27] was “inactive” and the bioavailability [28] was 100%. The fAUClast [29] was 1.2 µg·h/mL, the bioavailability [30] was 92% and the IC50 [31] was 9.4 nM. For the same compound, the inhibition [32] was “inactive”, the Activity [33] was “Toxic” and the inhibition [34] was “inactive”. For the same compound, the Activity [35] was “Toxic”, the IC50 (Cytochrome P450 3A4) was greater than 100000 nM and the Cmax [36] was 1700 ng/mL. The Activity [37] was “Non-Toxic”, the inhibition [38] was “inactive” and the “inhibition (INH)” value [39] was “Not Active”. The inhibition [40] was “inactive” and the Activity [41] was “Toxic”.
